The test system of experiment [1] is A2780 cells. Description: In-vitro cell proliferation assay (SRB), A2780 cells. The experiment is classed as cell-based. Particulars: Homo sapiens, A2780, 72 h, A2780 cells, 72 hours, read-out: A2780 IC50. The procedure, abridged: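 Read-out is SRB absorbance at 570 nm on TCA-fixed cells after 72 hours of compound treatment at 37° C. in 5% CO2. Background from a media-only plate is subtracted, and % inhibition is interpolated between two tested concentrations.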

Experiment [2] has as its target T1, NAMPT (Homo sapiens, UniProt P43490).
T1 construct: His tag; host or cells: E. coli
The experiment can be described thus: Biochemical inhibition assay: NAMPT enzymatic reaction, NMN quantified by mass spectrometry. To be noted: read-out: Biochem IC50. The procedure, abridged: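 Inhibition of E. coli-expressed His-tagged human NAMPT, measured as NMN formation by mass spectrometry after a 30 min room-temperature reaction containing 1 μM NAM, 100 μM PRPP and 2.5 mM ATP.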

For orientation: IC50 means the midpoint of a concentration-inhibition curve.

The structures appear in SMILES notation. Like-named read-outs stand apart in the source and are kept apart here. Bounds are passed on as bounds.

T1 sequence (P43490 whole entry): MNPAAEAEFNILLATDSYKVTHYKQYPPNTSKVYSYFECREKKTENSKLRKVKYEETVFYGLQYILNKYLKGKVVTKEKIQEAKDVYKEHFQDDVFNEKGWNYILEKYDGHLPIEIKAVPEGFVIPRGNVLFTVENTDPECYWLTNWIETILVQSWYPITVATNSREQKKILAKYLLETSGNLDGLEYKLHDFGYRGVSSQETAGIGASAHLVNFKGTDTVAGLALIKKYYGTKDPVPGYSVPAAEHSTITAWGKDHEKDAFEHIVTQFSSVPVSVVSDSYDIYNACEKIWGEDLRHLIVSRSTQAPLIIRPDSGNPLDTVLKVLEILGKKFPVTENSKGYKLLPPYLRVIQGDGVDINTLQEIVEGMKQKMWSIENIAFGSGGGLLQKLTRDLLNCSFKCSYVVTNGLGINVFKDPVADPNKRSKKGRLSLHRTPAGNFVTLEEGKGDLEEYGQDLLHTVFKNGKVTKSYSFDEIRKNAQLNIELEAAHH

For `O=C(NCc1ccc(S(=O)(=O)c2cccc(C(F)(F)F)c2)cc1)c1cc2ccncc2s1` [N-[(4-{[3-(trifluoromethyl)benzene]sulfonyl}phenyl)methyl]thieno[2,3-c]pyridine-2-carboxamide], the IC50 in experiment [1] (SRB assay) was 1 nM; in experiment [2] (NAMPT enzymatic reaction), 3 nM.
In the case of `O=C(NCc1ccc(S(=O)(=O)c2cc(C(F)(F)F)ccc2OCc2ccccc2)cc1)c1cnc2[nH]ncc2c1` [N-[(4-{[2-(benzyloxy)-5-(trifluoromethyl)benzene]sulfonyl}phenyl)methyl]-1H-pyrazolo[3,4-b]pyridine-5-carboxamide], the IC50 in experiment [1] (SRB) and in experiment [2] (NAMPT enzymatic assay) was 100 to 1000 nM throughout.
As to `COc1cc(C)cc(OC)c1S(=O)(=O)c1ccc(CNC(=O)c2cc3ccncc3s2)cc1` [N-({4-[(2,6-dimethoxy-4-methylbenzene)sulfonyl]phenyl}methyl)thieno[2,3-c]pyridine-2-carboxamide], the IC50 in experiment [1] (SRB assay) stood at 3 nM; in experiment [2] (NAMPT enzymatic reaction), 7 nM.
Turning to `COc1ccc2cc(S(=O)(=O)c3ccc(CNC(=O)c4ccc5nccn5c4)cc3)ccc2c1` [N-{[4-(6-methoxynaphthalene-2-sulfonyl)phenyl]methyl}imidazo[1,2-a]pyridine-6-carboxamide], the values for the half-maximal inhibitory concentration (IC50) in experiment [1] (SRB) and in experiment [2] (NAMPT enzymatic assay) were 1.8 nM and 2.7 nM, respectively.
For the molecule `COc1cc(S(=O)(=O)c2ccc(CNC(=O)c3cc4ccncc4s3)cc2)ccc1F` [N-({4-[(4-fluoro-3-methoxybenzene)sulfonyl]phenyl}methyl)thieno[2,3-c]pyridine-2-carboxamide], the results for the IC50 in experiment [1] (SRB) and in experiment [2] (NAMPT enzymatic reaction) were 3.1 nM and 9 nM, respectively.
Regarding `COc1ccc(C)cc1S(=O)(=O)c1ccc(CNC(=O)c2ccc3nccn3c2)cc1` [N-({4-[(2-methoxy-5-methylbenzene)sulfonyl]phenyl}methyl)imidazo[1,2-a]pyridine-6-carboxamide], the IC50 worked out at 11.7 nM in experiment [1] (SRB) and 43.1 nM in experiment [2] (NAMPT enzymatic reaction).
`O=C(NCc1ccc(S(=O)(=O)c2ccc(Cl)cc2C(F)(F)F)cc1)c1cnc2nccn2c1`: the IC50 in experiment [1] (SRB) was 68.4 nM; in experiment [2] (NAMPT enzymatic assay) it was 7.9 nM.
The like results for `O=C(NCc1ccc(S(=O)(=O)c2ccc(C(F)(F)F)c(Cl)c2)cc1)c1cc2ccncc2o1` were, in that order, 6.2 nM and 7.9 nM.
Regarding `O=C(NCc1ccc(S(=O)(=O)c2ccc(C(F)(F)F)cc2Cl)cc1)c1cc2cnccc2[nH]1`, the IC50 in experiment [1] (SRB) came to 25.4 nM; in experiment [2] (NAMPT enzymatic assay), 127 nM.
For the molecule `O=C(NCc1ccc(S(=O)(=O)c2ccc(C(F)(F)F)cc2OCC(F)(F)F)cc1)c1ccc2nccn2c1` [N-[(4-{[2-(2,2,2-trifluoroethoxy)-4-(trifluoromethyl)benzene]sulfonyl}phenyl)methyl]imidazo[1,2-a]pyridine-6-carboxamide], the IC50 in experiment [1] (SRB) was determined as 1.2 nM; in experiment [2] (NAMPT enzymatic assay), 7 nM.
For `O=C(NCc1ccc(S(=O)(=O)c2cccc(F)c2Cl)cc1)c1cc2ccncc2o1`, the IC50 came out at 61.1 nM in experiment [1] (SRB) and 17 nM in experiment [2] (NAMPT enzymatic reaction).
For `O=C(NCc1ccc(S(=O)(=O)c2cccc3c2OCC3)cc1)c1cnc2nccn2c1` [N-{[4-(2,3-dihydro-1-benzofuran-7-sulfonyl)phenyl]methyl}imidazo[1,2-a]pyrimidine-6-carboxamide], the IC50 in experiment [1] (SRB) stood at 25.8 nM; in experiment [2] (NAMPT enzymatic assay) it was 2.1 nM.
For `O=C(NCc1ccc(S(=O)(=O)c2ccccc2)cc1)c1cc2nccnc2s1` [N-{[4-(benzenesulfonyl)phenyl]methyl}thieno[2,3-b]pyrazine-6-carboxamide], the figures for the IC50 in experiment [1] (SRB assay) and in experiment [2] (NAMPT enzymatic reaction) were over 30000 nM and 52 nM, respectively.
On to `O=C(NCc1ccc(S(=O)(=O)c2cccc(C(F)(F)F)n2)cc1)c1cnc2[nH]ncc2c1` [N-({4-[6-(trifluoromethyl)pyridine-2-sulfonyl]phenyl}methyl)-1H-pyrazolo[3,4-b]pyridine-5-carboxamide], for which the IC50 was found to be 11.1 nM in experiment [1] (SRB) and 24.2 nM in experiment [2] (NAMPT enzymatic assay).
The like results for `Cn1cc2cc(S(=O)(=O)c3ccc(CNC(=O)c4ccc5nccn5c4)cc3)ccc2n1` [N-{[4-(2-methyl-2H-indazole-5-sulfonyl)phenyl]methyl}imidazo[1,2-a]pyridine-6-carboxamide] were, in that order, 5.8 nM and 13.3 nM.

For the origin of these results see patent publication US12336981B2, “Compounds and compositions for the inhibition of NAMPT” (Valo Health, Inc., priority 2010, dated 2025).
